Results published in US10975354B2, “Transdifferentiated cell populations and methods of use thereof” (ORGENESIS LTD., priority 2017, dated 2021).

Legend:
[1] = system: adult human liver cells; assay: Glucose-regulated insulin secretion (radioimmunoassay) with Ad-CMV-Pdx-1 supplemented with Wnt3A or DKK3; type: cell-based; settings: Ad-CMV-Pdx-1 and soluble factors, 5 days; 2 mM then 17.5 mM glucose
Experimental: Adult human liver cells were treated with Ad-CMV-Pdx-1 and soluble factors, as previously reported, supplemented with Wnt3A (50 ng/ml R&D or DKK3 (3 μg/ml R&D). After 5 days, insulin secretion was analyzed by static incubations at low followed by high glucose concentrations (2 mM and 17.5 mM glucose in KRB, respectively). Insulin secretion is measured using the human insulin radioimmunoassay kit (DPC; n≥8 from 3 different experiments) and compared to untreated cells (Cont). *p<0.01 compared to Ad-CMV-Pdx-1 alone, using Student's t-test analysis.
C-peptide and insulin secretion were measured by static incubations of primary cultures of adult liver cells 6 days after the initial exposure to the viral treatment, as described (Sapir et al, (2005) ibid; Meivar-Levy et al, (2007) ibid; Aviv et al, (2009) ibid). The glucose-regulated C-peptide secretion was measured at 2 mM and 17.5 mM glucose, which was determined by dose-dependent analyses to maximally induce insulin secretion from transdifferentiated liver cells, without having adverse effects on treated cells function (Sapir et al, (2005) ibid; Meivar-Levy et al, (2007) ibid; Aviv et al, (2009) ibid). C-peptide secretion was detected by radioimmunoassay using the human C-peptide radioimmunoassay kit (Linco Research, St. Charles, Mo.; <4% cross-reactivity to human proinsulin). […]

[2] = system: eGFP+ cells; assay: Pancreatic hormones gene expression (real-time RT-PCR) in eGFP+ cells supplemented with DKK3; type: cell-based, human; settings: Ad-CMV-Pdx-1, 5 days, DKK3 0.5 μg/ml
Experimental: Pancreatic hormones gene expression was studied by Quantitative real-time RT-PCR compared to the control-treated cells.
Total RNA was isolated and cDNA was prepared and amplified, as described previously (Ber et al, (2003) J Biol Chem 278: 31950-31957; Sapir et al, (2005) ibid). Quantitative real-time RT-PCR was performed using ABI Step one plus sequence Detection system (Applied Biosystems, CA, USA), as described previously (Sapir et al, (2005) ibid; Meivar-Levy et al, (2007) ibid; Aviv et al, (2009) J Biol Chem 284: 33509-33520).

[3] = system: eGFP+ cells; assay: Transdifferentiation of DKK-treated eGFP+ cells in the presence of sodium butyrate; type: cell-based, human; settings: DKK 3 μg/ml for 48 hours, then pTFs with 5 mM sodium butyrate
Experimental: Wnt-pathway activation was induced by supplementing cell medium with 10 mM Li for 48 hours. Subsequently, cells were transdifferentiated by pancreatic transcription factors (pTFs) in the presence of 5 mM sodium butyrate (SB) (FIG. 44A) or 1 μM suberanilohydroxamic acid (SAHA) (FIG. 44B). In the GFP+ cell population, a similar effect was observed when Wnt-pathway was inhibited by supplementing serum-based medium with 3 μg/ml Dickkopf (DKK) for 48 hours followed by the transdifferentiation of cells by pTFs in the presence of 5 mM sodium butyrate (SB) (FIG. 44C). Bars show ratios of transcript levels of cells treated with HDACi and pTFs compared with cells treated with pTFs alone. Transcript levels were normalized to β-actin transcript levels. N=4 independent experiments with cells from two donors. * P-value<0.05.
Similarly, SB (HDAC inhibitor) treatment alleviated the effect of Wnt signaling inhibition of eGFP+ cells (FIG. 44C).

[4] = system: DsRed+ cells; assay: Reprogramming of DsRed+ cells with Li followed by pTFs in the presence of HDACi; type: cell-based, human; settings: combination with 10 mM Li for 48 hours; 5 mM SB or 1 μM SAHA during 2+1 TD
[5] = system: human liver cultures; assay: Glucose stimulated insulin secretion with WNT3A or DKK added during TD; type: cell-based; settings: added during TD (ectopic pTFs); measured five days later
Experimental: FIGS. 41A-41G show active WNT signaling controls the activation of the pancreatic lineage in liver. (FIG. 41A) Efficient reprogramming of liver to pancreas relies on active WNT signaling. WNT signaling was activated by Wnt3A, or, alternatively, blocked by DKK, concomitantly to ectopic pTFs expression (TD) in human liver cultures. Glucose stimulated Insulin secretion was measured five days later. Results are average and standard error (SE) of 3-6 repeats from 3 different donors. * P-value<0.05; ** P-value<0.005; *** P-value<0.0005. […] Efficiency of reprogramming was measured by the activation of pancreatic genes expression and relative insulin secretion induced by high glucose concentrations (17.5 mM). […]
100,000 cells/well were seeded in a 6-wells plate in a low glucose DMEM media supplemented with 2 mM L-glutamine, 10% serum, antibiotics, 10 mM Nicotinamide, 20 ng/ml EGF, and 5 nM exendin4. […] After 48 hours the cells were harvested, counted, and 100,000 cells were infected with 50MOI of Ad-MafA and re-plated as above. 72 hours later the cells were analyzed for gene expression and insulin secretion, as detailed below. […]
Glucose regulated insulin secretion (FIGS. 38D and 38F, and 41A) was measured by radioimmunoassay kit (DPC, Los-Angeles, Calif.) as described previously (Berneman-Zeitouni D et al., ibid). […]

Molecule	Pdx-1-induced glucose-regulated insulin secretion [1]	transdifferentiation capacity of eGFP cells [2]	effect of Wnt signaling inhibition of eGFP+ cells [3]	reprogramming of DsRed+ cells (expression of PDX-1, Isl-1, Pax-4, Nkx6.1) [4]	glucose-regulated insulin secretion [5]
DKK3: Dickkopf-related protein 3 (R&D), an inhibitor of the Wnt signaling pathway	completely abolished	totally abolished	–	–	–
CCCC(=O)[O-].[Na+] [SB, sodium-butyrate]	–	–	alleviated	increased reprogramming	–
O=C(CCCCCCC(=O)Nc1ccccc1)NO [SAHA, suberanilohydroxamic acid]	–	–	–	increased reprogramming	–
Wnt3A: WNT3A protein (R&D), Wnt-pathway agonist (protein, UniProt P56704 19-352, looked up) Protein Wnt-3a: SYPIWWSLAVGPQYSSLGSQPILCASIPGLVPKQLRFCRNYVEIMPSVAEGIKIGIQECQHQFRGRRWNCTTVHDSLAIFGPVLDKATRESAFVHAIASAGVAFAVTRSCAEGTAAICGCSSRHQGSPGKGWKWGGCSEDIEFGGMVSREFADARENRPDARSAMNRHNNEAGRQAIASHMHLKCKCHGLSGSCEVKTCWWSQPDFRAIGDFLKDKYDSASEMVVEKHRESRGWVETLRPRYTYFKVPTERDLVYYEASPNFCEPNPETGSFGTRDRTCNVSSHGIDGCDLLCCGRGHNARAERRREKCRCVFHWCCYVSCQECTRVYDVHTCK	increased	–	–	–	marked increase
